Key:
KRAS (G12D)::SOS1 = biological target: T1, KRAS (G12D)::SOS1 (Homo sapiens, UniProt P01116, G12D); assay: KRAS::SOS1 AlphaScreen binding assay, KRAS G12D
T1 construct: KRAS (G12D) 1-169, N-terminal 6His-tag, C-terminal avi-tag; 6His-tag (N); purchased Xtal BioStructures, Inc. (KRAS G12D); Viva Biotech Ltd (SOS1)
Method: Low IC50 values in this assay setting are indicative of strong inhibition of protein-protein interaction between SOS1 and KRAS:
These assays measure the inhibitory effect of compounds on KRAS mutant protein-protein interactions using the Alpha Screen technology by Perkin Elmer.
For the chosen highest assay concentration of 100 μM, 150 nL of compound solution are transferred from a 10 mM DMSO compound stock solution. A series of eleven fivefold dilutions per compound are transferred to the assay plate, compound dilutions are tested in duplicates. DMSO are added as backfill to a total volume of 150 nL.
The assays run on a fully automated robotic system in a darkened room below 100 Lux. To 150 nl of compound dilution 10 μl of a mix including KRAS mutant protein, SOS1 (final assay concentrations see above) and GDP nucleotide (Sigma G7127; final assay concentration 10 μM) in assay buffer (1×PBS, 0.1% BSA, 0.05% Tween 20) are added into columns 1-24. After 30 minutes incubation time 5 μl of Alpha Screen bead mix in assay buffer are added into columns 1-23.
Plates are kept at room temperature in a darkened incubator. After an additional 60 minutes incubation time the signal is measured in a PerkinElmer Envision HTS Multilabel Reader using the AlphaScreen specs from PerkinElmer.
IC50 values are calculated and analyzed with Boehringer Ingelheim's MEGALAB IC50 application using a 4 parametric logistic model.

[1] = tested on: NCI-H2122 cells (NSCLC, G12C); assay: NCI-H2122 CTG proliferation assay (120 h); type: cell-based; settings: Homo sapiens, CellTiter-Glo
Method: The CTG assay is designed to measure quantitatively the proliferation of NCI-H2122 cells (ATCC CRL-5985), using the CellTiter Glow Assay Kit (Promega G7571). Cells are grown in RPMI medium (ATCC) supplemented with Fetal Calf Serum (Life Technologies, Gibco BRL, Cat. No. 10270-106). On “day 0” 200 NCI-H2122 cells are seeded in 60 μL RPMI ATCC+10% FCS+ Penstrep in a black 384-well plate, flat and clear bottom (Greiner, PNr. 781091). Cells are then incubated in the plates at 37° C. in a CO2 incubator overnight. On day 1, compounds (10 mM stock in DMSO) are added with the ECHO acoustic liquid handler system (Beckman Coulter), including DMSO controls. Plates are incubated for 120 h, and cell viability is measured using CellTiter-Glo luminescent cell viability reagent (Promega product code G7570). Viability (stated as percent of control) is defined as relative luminescence units RLU of each well divided by the RLU of cells in DMSO controls. IC50 values are determined from viability measurements by non-linear regression using a four-parameter model.

[2] = tested on: SK-CO-1 cells (CRC, G12V); assay: SK-CO-1 CTG proliferation assay (120 h); type: cell-based; settings: Homo sapiens, CellTiter-Glo
Method: SK—CO-1 cells (ATCC HTB-39) are dispensed into 384-well plates, flat and clear bottom (Greiner, PNr. 781091) at a density of 500 cells per well in 60 μL EMEM (Sigma M5650)+10% Fetal Calf Serum (HyClone, PNr.: SH30084.03) and incubated at 37° C. in a CO2 incubator overnight. The next day, compounds (10 mM stock in DMSO) are added with the ECHO acoustic liquid handler system (Beckman Coulter), including DMSO controls. Plates are incubated for 120 h, and cell viability is measured using CellTiter-Glo luminescent cell viability reagent (Promega product code G7570). Viability (stated as percent of control) is defined as relative luminescence units RLU of each well divided by the RLU of cells in DMSO controls. IC50 values are determined from viability measurements by non-linear regression using a four-parameter model.

[3] = Metabolic (microsomal) stability assay, HLM; type: in vitro ADME; settings: human liver microsomes, 1 μM test compound, predicted clearance as percent of liver blood flow
Method: The metabolic degradation of the test compound is assayed at 37° C. with pooled liver microsomes (mouse (MLM), rat (RLM) or human (HLM)). The final incubation volume of 48 μL per time point contains TRIS buffer (pH 7.5; 0.1 M), magnesium chloride (6.5 mM), microsomal protein (0.5 mg/mL for mouse/rat, 1 mg/mL for human specimens) and the test compound at a final concentration of 1 μM. Following a short preincubation period at 37° C., the reactions are initiated by addition of 12 μL beta-nicotinamide adenine dinucleotide phosphate, reduced form (NADPH, 10 mM) and terminated by transferring an aliquot into solvent after different time points (0, 5, 15, 30, 60 min). Additionally, the NADPH-independent degradation is monitored in incubations without NADPH, terminated at the last time point by addition of acetonitrile. The quenched incubations are pelleted by centrifugation (4,000 rpm, 15 min). An aliquot of the supernatant is assayed by LC-MS/MS to quantify the concentration of parent compound in the individual samples.
In vitro intrinsic clearance (CLint, in vitro) is calculated from the time course of the disappearance of the test drug during the microsomal incubation. Each plot is fitted to the first-order elimination rate constant as C(t)=C0*exp(−ke*t), where C(t) and C0 are the concentration of unchanged test drug at incubation time t and that at preincubation and ke is the disappearance rate constant of the unchanged drug. Subsequently, CLint, in vitro (μL min^−1·amount protein) values are converted to predicted CLint, in vivo (mL min^−1 kg^−1) from incubation parameters according to the equation CLint, in vivo=CLint, in vitro×(incubation volume (ml)/amount protein (mg))×(amount protein (mg)/g liver tissue)×(liver weight/body wt.). For better across species comparison the predicted clearance is expressed as percent of the liver blood flow [% QH] (mL min^−1 kg^−1) in the individual species. In general, high stability (corresponding to low % QH) of the compounds across species is desired.

T1 sequence (P01116 1-169 isoform P01116-2 G12D): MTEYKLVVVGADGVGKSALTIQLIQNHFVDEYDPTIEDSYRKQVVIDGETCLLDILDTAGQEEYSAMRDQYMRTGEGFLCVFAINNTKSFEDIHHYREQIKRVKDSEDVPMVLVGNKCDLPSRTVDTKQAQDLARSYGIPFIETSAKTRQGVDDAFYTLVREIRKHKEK

SMILES | IC50 (KRAS (G12D)::SOS1) [nM] | IC50 [1] [nM] | IC50 [2] [nM] | HLM QH [3] [%]
C[C@H]1CNCCCN1c1nccc(-c2noc3c2OCCC32CCCc3sc(N)c(C#N)c32)n1 (some centres unmarked) [IIb-7] | 2 | 1940 | 455 | <24
CCN1[C@H]2C[C@H]2C[C@H]1[C@H](C)Oc1nccc(-c2onc3c2CCC[C@@]32CCCc3sc(N)c(C#N)c32)n1 [Ie-3] | 3 | 5260 | 817 | >88
C[C@H]1CNCCCN1c1nccc(-c2onc3c2CCC[C@@]32CCCc3sc(N)c(C#N)c32)n1 [If-1] | 5 | 10700 | 2730 | 25
C[C@H](Oc1nccc(-c2noc3c2CCC[C@@]32CCCc3sc(N)c(C#N)c32)n1)[C@@]1(C)CCCN1C [IIe-1] | 4 | 6380 | 1030 | >88
C[C@H]1CNCCN1c1nccc(-c2noc3c2CCC[C@@]32CCCc3sc(N)c(C#N)c32)n1 [IIf-1] |  | 2860 | 600 | 29
C[C@H](Oc1nccc(-c2onc3c2CCC[C@@]32CCCc3sc(N)c(C#N)c32)n1)[C@@H]1C[C@@H](F)CN1C [Ie-2] | 2 | 1620 | 1040 | >88
C[C@H]1CNCCCN1c1nccc(-c2noc3c2CSCC32CCCc3sc(N)c(C#N)c32)n1 (some centres unmarked) [IIb-4] | 13 | 4020 | 2390 | 
C[C@H]1CNCCCN1c1nccc(-c2noc3c2CC(F)(F)CC32CCCc3sc(N)c(C#N)c32)n1 (some centres unmarked) [IIb-2] | 21 | 4850 | 6240 | 39
C[C@H]1[C@@H]2CCCN2CCCN1c1nccc(-c2onc3c2CCC[C@@]32CCCc3sc(N)c(C#N)c32)n1 [Id-1] | 1 | 9460 | 4680 | >88
C[C@H](Oc1nccc(-c2onc3c2CCC[C@@]32CCCc3sc(N)c(C#N)c32)n1)[C@@H]1C[C@@H]2C[C@@H]2N1C [Ih-1] | 4 | 7810 | 398 | >88
CC(Oc1nccc(-c2onc3c2CCC[C@@]32CCCc3sc(N)c(C#N)c32)n1)C12CCCN1CCC2 (some centres unmarked) [Ie-5] | 4 | 1220 | 798 | 63
C[C@H]1CNCCCN1c1ncnc(-c2onc3c2CCC[C@@]32CCCc3sc(N)c(C#N)c32)n1 [Ib-4] | 4 | > 25000 | 930 | 34
C[C@H](Oc1ccnc(-c2noc3c2CCC[C@@]32CCCc3sc(N)c(C#N)c32)n1)[C@@H]1CCCN1C [IIb-3] | 2 |  | 285 | 64
CC1Cc2c(-c3ccnc(N4CCCNC[C@@H]4C)n3)noc2C2(CCCc3sc(N)c(C#N)c32)C1 (some centres unmarked) [IIb-1] | 31 | 3920 | 2690 | <24
CO[C@@H]1C[C@@H]([C@H](C)Oc2nccc(-c3onc4c3CCC[C@@]43CCCc4sc(N)c(C#N)c43)n2)N(C)C1 [Ie-1] | 2 | 1500 | 2520 | >88
C[C@H](Oc1nccc(-c2onc3c2CCC[C@@]32CCCc3sc(N)c(C#N)c32)n1)[C@@H]1C[C@@H]2C[C@@H]2N1 [If-2] | 6 | > 25000 | 7920 | 
C[C@H]1CNCCCN1c1nccc(-c2noc3c2CCC[C@@]32CCCc3sc(N)c(C#N)c32)n1 (single isomer, unassigned) [IIb-5] | 3 | 6360 | 563 | <24
C[C@@H]1NCCCN(c2nccc(-c3onc4c3CCC[C@@]43CCCc4sc(N)c(C#N)c43)n2)[C@H]1C [Ib-2] | 5 | 8350 | 457 | 51
